Data reported in patent publication US9549912B2, “Methods for treating atrial fibrillation” (Armetheon, Inc., priority 2009, dated 2017).
Read-outs that look alike come from different tables or passages of the source.

Columns and labels:
[1] = Electrophysiological activity in animals: atrial refractoriness, metabolite activity; type: in vivo; settings: in vivo
P-glycoprotein (P-gp) = P-glycoprotein (P-gp) (Homo sapiens, UniProt P08183); settings: cited from earlier work
[2] = cited from earlier work
[3] = 2 years; 8 for the placebo; cited from earlier work
AF patients = settings: followed for a year, versus placebo; cited from earlier work
[4] = Phase 2 clinical trial of tecarfarin: time in therapeutic INR range versus warfarin; type: in vivo, human; settings: for proportion of time with INR below 1.5 / proportion of time with INR between 1.5 and 1.9: human, in vivo; for time in therapeutic range (TTR), INR between 2.0 and 3.0: same patient population, previously on warfarin
patients with AF = settings: cited from earlier work

Chain of P-glycoprotein (P-gp) (P08183 whole entry): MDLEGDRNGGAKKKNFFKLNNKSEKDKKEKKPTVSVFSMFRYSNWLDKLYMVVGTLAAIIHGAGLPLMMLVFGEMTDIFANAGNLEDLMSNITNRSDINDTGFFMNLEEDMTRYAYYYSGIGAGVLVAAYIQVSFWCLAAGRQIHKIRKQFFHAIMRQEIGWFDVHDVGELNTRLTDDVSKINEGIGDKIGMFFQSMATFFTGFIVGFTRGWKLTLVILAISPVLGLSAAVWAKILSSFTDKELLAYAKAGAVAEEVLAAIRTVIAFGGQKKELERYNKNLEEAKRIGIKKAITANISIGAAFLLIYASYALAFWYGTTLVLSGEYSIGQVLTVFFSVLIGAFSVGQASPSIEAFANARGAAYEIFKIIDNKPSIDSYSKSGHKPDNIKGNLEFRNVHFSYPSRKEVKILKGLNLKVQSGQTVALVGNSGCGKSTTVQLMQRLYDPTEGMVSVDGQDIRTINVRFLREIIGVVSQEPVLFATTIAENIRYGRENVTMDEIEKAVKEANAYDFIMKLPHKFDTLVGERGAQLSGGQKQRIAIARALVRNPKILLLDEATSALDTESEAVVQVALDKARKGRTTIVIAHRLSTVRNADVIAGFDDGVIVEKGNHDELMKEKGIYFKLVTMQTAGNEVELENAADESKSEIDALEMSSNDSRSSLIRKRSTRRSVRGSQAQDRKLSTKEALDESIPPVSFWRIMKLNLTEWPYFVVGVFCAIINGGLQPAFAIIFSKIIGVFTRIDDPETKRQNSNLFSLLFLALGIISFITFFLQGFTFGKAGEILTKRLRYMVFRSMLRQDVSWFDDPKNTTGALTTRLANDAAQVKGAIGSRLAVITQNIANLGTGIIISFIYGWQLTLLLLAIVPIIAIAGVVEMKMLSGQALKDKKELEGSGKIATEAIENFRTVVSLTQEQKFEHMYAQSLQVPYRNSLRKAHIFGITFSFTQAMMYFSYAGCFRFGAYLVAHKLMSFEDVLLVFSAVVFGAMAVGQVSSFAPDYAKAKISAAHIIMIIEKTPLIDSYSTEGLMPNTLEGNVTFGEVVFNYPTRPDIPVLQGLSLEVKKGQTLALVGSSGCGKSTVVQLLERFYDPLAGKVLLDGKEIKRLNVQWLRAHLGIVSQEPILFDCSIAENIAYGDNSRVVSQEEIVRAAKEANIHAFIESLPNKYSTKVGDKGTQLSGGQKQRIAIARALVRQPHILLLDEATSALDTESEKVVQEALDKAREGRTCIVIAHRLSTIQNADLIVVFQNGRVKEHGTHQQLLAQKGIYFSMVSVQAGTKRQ

CCN(CC)CCOc1c(I)cc(C(=O)c2c(CC(=O)O)oc3ccccc23)cc1I [ATI-2000]
electrophysiological activity [1]: electrophysiologically inactive

[H]/N=C(/N)c1ccc(NCc2nc3cc(C(=O)N(CCC(=O)O)c4ccccn4)ccc3n2C)cc1 [dabigatran]
P-gp substrate status (P-glycoprotein (P-gp)): substrate | major bleeding versus warfarin ([2]; 110 mg): superior | major bleeding versus warfarin ([2]; 150 mg): noninferior

CCCCc1oc2ccc(NS(C)(=O)=O)cc2c1C(=O)c1ccc(OCCCN(CCCC)CCCC)cc1 [dronedarone]
number of strokes in patients with only AF or atrial flutter on all ECGs [3]: 2 | time to first recurrence of AF (TTFR) (AF patients): significant increase in TTFR compared to placebo

C=C[C@H]1C[N@@]2CC[C@H]1C[C@@H]2[C@@H](O)c1ccnc2ccc(OC)cc12 [quinidine]
P-gp inhibition (P-glycoprotein (P-gp)): particularly potent P-gp inhibitor

CC(OC(=O)c1ccc(Cc2c(O)c3ccccc3oc2=O)cc1)(C(F)(F)F)C(F)(F)F [tecarfarin]
proportion of time with INR below 1.5 [4]: 1.2% | proportion of time with INR between 1.5 and 1.9 [4]: 14.2% | time in therapeutic range (TTR), INR between 2.0 and 3.0 [4]: 71.5%

CC(=O)CC(c1ccccc1)c1c(O)c2ccccc2oc1=O (centres unmarked) [warfarin]
proportion of time with INR below 1.5 [4]: 3.9% | proportion of time with INR between 1.5 and 1.9 [4]: 22.4% | time in therapeutic range (TTR), INR between 2.0 and 3.0 [4]: 59.3% | strokes prevented (patients with AF): 64%
